Legend:
INDY [1] = biological target: T1, INDY (Homo sapiens, UniProt Q86YT5); test: 14C-citrate uptake in HepG2 cells endogenously expressing INDY (NaCT); format: cell-based; conditions: endogenous INDY
Summary of the method: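 HepG2 cells, which express INDY endogenously, were preincubated with compound for 5 min at 37 °C in pH 6.5 Na+ citrate uptake buffer. 14C-citrate ([…]) was then added for 90 min at 37 °C. After washing and NaOH lysis, uptake was measured by scintillation counting, with 5 mM citrate as positive control.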

INDY [2] = biological target: T1, INDY; test: 14C-citrate uptake in HEK293 cells overexpressing recombinant human INDY (NaCT); format: cell-based; parameters: expressed in transfected cells; host or cells: HEK293
Summary of the method: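 HEK293 cells overexpressing human NaCT, 50,000/well, preincubated 5-30 min at 37 °C with compound in pH 6.5 Na+ buffer. 14C-citrate ([…]) uptake then ran 20-90 min at 37 °C, followed by ice-cold washes, NaOH lysis and scintillation counting. 10 mM citrate served as positive control.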

T1 sequence (Q86YT5 whole entry): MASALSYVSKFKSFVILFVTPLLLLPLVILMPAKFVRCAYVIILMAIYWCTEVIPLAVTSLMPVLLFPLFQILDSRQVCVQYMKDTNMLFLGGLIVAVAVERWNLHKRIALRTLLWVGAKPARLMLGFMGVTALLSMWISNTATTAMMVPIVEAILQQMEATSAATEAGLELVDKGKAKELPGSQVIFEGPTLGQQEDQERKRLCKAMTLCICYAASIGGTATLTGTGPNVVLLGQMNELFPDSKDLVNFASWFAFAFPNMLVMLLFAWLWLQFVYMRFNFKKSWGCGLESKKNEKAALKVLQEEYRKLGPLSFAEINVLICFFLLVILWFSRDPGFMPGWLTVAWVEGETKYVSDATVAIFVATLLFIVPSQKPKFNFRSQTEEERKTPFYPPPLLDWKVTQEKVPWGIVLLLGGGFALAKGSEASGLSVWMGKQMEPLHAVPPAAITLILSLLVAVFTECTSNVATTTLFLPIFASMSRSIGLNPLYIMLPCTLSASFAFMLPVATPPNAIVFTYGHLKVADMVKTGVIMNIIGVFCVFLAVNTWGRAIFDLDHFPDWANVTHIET

Row | SMILES | IC50 (INDY [1]) [nM] | IC50 (INDY [2]) [nM]
1 | O=C(NCc1ccccc1F)C1CCN(S(=O)(=O)/C=C/c2ccccc2)CC1 [Example 5] | 2000 | 2900
2 | CC(C)(C)c1ccc(S(=O)(=O)N2CCC(C(=O)NCc3ccccc3F)CC2)cc1 [Example 12, 1-(4-tert-butylbenzenesulfonyl)-N-[(2-fluorophenyl)methyl]piperidine-4-carboxamide] | 1000 | 200
3 | COc1ccccc1CNC(=O)C1CN(S(=O)(=O)c2ccc(C(C)(C)C)cc2)C1 [Example 50, 1-(4-tert-butylbenzenesulfonyl)-N-[(2-methoxyphenyl)methyl]azetidine-3-carboxamide] | 7000 | 4400
4 | O=C(NCc1ccccn1)C1CCN(S(=O)(=O)c2ccc(C(F)(F)F)cc2)CC1 [Example 57, N-[(pyridin-2-yl)methyl]-1-[4-(trifluoromethyl)benzenesulfonyl]piperidine-4-carboxamide] | 2500 | 4100
5 | O=C(NCc1ccccn1)C1CCN(S(=O)(=O)c2ccc(S(F)(F)(F)(F)F)cc2)CC1 [Example 86, 1-[4-(pentafluoro-lambda6-sulfanyl)benzenesulfonyl]-N-[(pyridin-2-yl)methyl]pipendine-4-carboxamide] | 400 | 1100

Second part, the compound after the results:

Row | IC50 (INDY [1]) [nM] | IC50 (INDY [2]) [nM] | SMILES
6 | 300 | > 20000 | O=C(NCc1ccccc1F)C1CCN(S(=O)(=O)c2ccc(C(F)(F)F)cc2)CC1 [Example 25, N-[(2-fluorophenyl)methyl]-1-[4-(trifluoromethyl)benzenesulfonyl]piperidine-4-carboxamide]
7 | 100 | 100 | O=C(NCc1ccccc1F)C1CCN(S(=O)(=O)c2cc(Cl)cc(Cl)c2)CC1 [Example 44, 1-(3,5-dichlorobenzenesulfonyl)-N-[(2-fluorophenyl)methyl]piperidine-4-carboxamide]
8 | 400 | 800 | O=C(NCc1ccccn1)C1CCN(S(=O)(=O)c2cc(Cl)cc(Cl)c2)CC1 [Example 55, 1-(3,5-dichlorobenzenesulfonyl)-N-[(pyridin-2-yl)methyl]piperidine-4-carboxamide]
9 | 200 | 600 | O=C(NCc1ccccc1CO)C1CCN(S(=O)(=O)c2cc(Cl)cc(Cl)c2)CC1 [Example 87, 1-(3,5-dichlorobenzenesulfonyl)-N-{[2-(hydroxymethyl)phenyl]methyl}piperidine-4-carboxamide]
10 | 100 | 300 | O=C(NCc1ccccn1)C1CCN(S(=O)(=O)c2cc(Cl)cc(C3CC3)c2)CC1 [Example 101, 1-(3-chloro-5-cyclopropylbenzenesulfonyl)-N-[(pyridin-2-yl)methyl]piperidine-4-carboxamide]

Source: US20200087258A1, “INHIBITOR OF CITRATE TRANSPORTER AND THEIR USE IN THERAPY” (Eternygen GmbH, priority 2017, published 2020)
